Assay results as given in patent publication US5334723A, “2-piperidinecarboxylic acid derivative, oncogene suppressor and agent for obtaining revertants” (Meiji Seika Kaisha, Ltd., priority 1991, dated 1994).
In brackets after ≈: the same amount, converted by molar mass.

Key:
[1] = system: 3LL cells (Lewis lung cancer); assay: Antitumor effect on mouse tumor cells (MTT assay), 3LL; assay type: cell-based; settings: 72 h, 3-day incubation
Procedure: (§1) The P388 and L1210 cells are derived from mouse leukemia. The MethA cells, the 3LL cells and the B16 cells are derived from solid cancer, Lewis lung cancer and melanoma, respectively.
(§2) The cells subcultured in a CO2 incubator were each suspended in an RPM1 medium or Dulbecco's modified MEM medium, supplemented with 10%(v/v) fetal serum so as to give a cell density of 5×10^4 cells/mi. To a 135 μl portion of the suspension was added each test compound shown in Table 1 followed by 3-day incubation in a CO2 incubator. After the incubation was completed, 50% inhibition concentration (IC50) was determined by the MTT assay (Igaku no Ayumi, 128, 733 (1984)).

OG56 (human lung cancer) = assay: Antitumor effect on human tumor cells (MTT assay), OG56; assay type: cell-based; settings: same manner as Test Example 1
Procedure: as §2
(§3) The antitumor effects of the compounds of the present invention were evaluated in the same manner as in Test Example 1 except that various human tumor cells were employed. The HL60 cells, the CCRF-CCM cells and the QG5 cells are derived from human leukemia, human T cells and human lung cancer, respectively.

[2] = system: MethA cells (solid cancer); assay: Antitumor effect on mouse tumor cells (MTT assay), MethA; assay type: cell-based; settings: Meth-A, 72 h, 3-day incubation
Procedure: as §1, §2

[3] = system: HL60 cells (human leukemia); assay: Antitumor effect on human tumor cells (MTT assay), HL60; assay type: cell-based; settings: HL-60, same manner as Test Example 1
Procedure: as §2, §3

[4] = Acute toxicity, intravenous administration to male BDF mice; assay type: in vivo, mouse; settings: 3 mice per group
Source text: The compounds of the present invention were intravenously administered to male BDF mice in order to examine the acute toxicity (each group having 3 mice).

[5] = system: L1210 cells (mouse leukemia); assay: Antitumor effect on mouse tumor cells (MTT assay), L1210; assay type: cell-based; settings: 72 h, 3-day incubation
Procedure: as §1, §2

CCRFCEM (human T cells) = assay: Antitumor effect on human tumor cells (MTT assay), CCRFCEM; assay type: cell-based; settings: CCRF-CEM, same manner as Test Example 1
Procedure: as §2, §3

[6] = system: P388 cells (mouse leukemia); assay: Antitumor effect on mouse tumor cells (MTT assay), P388; assay type: cell-based; settings: 72 h, 3-day incubation
Procedure: as §1, §2

B16 cells (melanoma) = assay: Antitumor effect on mouse tumor cells (MTT assay), B16; assay type: cell-based; settings: 72 h, 3-day incubation
Procedure: as §1, §2

normal NIH3T3 cells [7] = assay: Morphology of normal NIH3T3 cells, microscopic observation; assay type: cell-based, mouse; settings: 40 μg/ml, 6 days
Procedure: (§4) NIH3T3 cells transformed with the activated c-Ha-ras gene and normal NIH3T3 cells were incubated for 6 days in the presence of 40 μg/ml of the compound obtained in Example 3 under the same conditions as in Example 6. The cells were microscopically observed in detail.

normal NIH3T3 cells [8] = assay: Growth of normal NIH3T3 cells; assay type: cell-based, mouse; settings: 40 μg/ml, 1st to 6th days, FIG. 1
Procedure: (§5) NIH3T3 cells transformed with the activated ras gene (Proc. Natl. Acad. Sci. USA, 81, 4771-4775 (1984)) and normal NIH3T3 cells were incubated in a Dulbecco-modified Eagle medium containing 5% bovine serum. The initial cell concentrations were adjusted to 1×10^4 cells/mi. The compound obtained in Example 3 was added to a concentration of 40 μg/ml and the cell numbers were counted with the lapse of time from the 1st to the 6th days.

[9] = system: NIH3T3 cells transformed with the activated c-Ha-ras gene; assay: Acquisition of revertant cells from transformed NIH3T3 cells, microscopic observation; assay type: cell-based, mouse; settings: 40 μg/ml, 6 days
Procedure: as §4

[10] = system: revertant cells transplanted onto BALB/C nude mice; assay: Carcinogenic ability of revertant cells on nude mouse; assay type: in vivo; settings: revertants of Example 7, 3×10^5 cells
ras gene product p21 = assay: Expression of ras gene product p21 in revertant cells (Western blotting); assay type: cell-based; settings: revertants isolated in Example 7, FIG. 2
Procedure: 2×10^6 portions of these cells were collected and each suspended in 1 ml of a buffer solution (100 mM NaCl, 20 mM Tris hydrochloride (pH 7.5), 5 mM MgCl2, 1% NonidetP-40 (polyoxyethylene(9)p-tert-octylphenol), 0.5% sodium deoxycholate, protease inhibitor) and then ground with a Potter homogenizer. After centrifuging at 3600 r.p.m. for 60 minutes, 10 μg portions of proteins were isolated from the supernatant by 12.5% polyacrylamide gel electrophoresis.
Then, the proteins in the gel were transferred into a nitrocellulose membrane and reacted with NCC-RAS-004, which was a monoclonal antibody for p21, at 4° C. for 24 hours to perform Western blotting. After reacting with rat Ig and ^125 I-Protein A, radioautography was performed.

[11] = system: NIH3T3 cells transformed with the activated ras gene; assay: Growth inhibition of NIH3T3 cells transformed with activated c-Ha-ras gene; assay type: cell-based, mouse; settings: 40 μg/ml, 1st to 6th days, FIG. 1
Procedure: as §5

[12] = Proceedings of 50th General Meeting of Japan Society of Cancer, 1991; cited from earlier work
[13] = system: NIH3T3 cells transformed with the activated ras gene; settings: JP-A-1-110627, cited from earlier work
normal NIH3T3 cells [14] = settings: 500 μg/ml, JP-A-1-110627; cited from earlier work

For O=C1C=CC[C@@H](C(=O)O)N1 [Compound of Ex. 1], which IC50 [1] is on record?
The IC50 was 100 µg/mL (≈ 709 µM).

What about the IC50 (OG56 (human lung cancer)) of the same compound?
The IC50 was 180 µg/mL (≈ 1280 µM).

And the IC50 [2]?
The IC50 was 100 µg/mL (≈ 709 µM).

What about the IC50 [3] of the same compound?
Its IC50 is 90 µg/mL (≈ 638 µM).

And the “Survival dose (doses causing no death)” value [4]?
Its value is 1000 mg/kg.

And the IC50 [5]?
The IC50 was 130 µg/mL (≈ 921 µM).

And the IC50 (CCRFCEM (human T cells))?
The IC50 was 90 µg/mL (≈ 638 µM).

What about the IC50 [6] of the same compound?
Its IC50 is 200 µg/mL (≈ 1420 µM).

And the IC50 (B16 cells (melanoma))?
Its IC50 is 90 µg/mL (≈ 638 µM).

Which results are given for O=C(O)[C@@H]1CC=CC(=S)N1 [Compound of Ex. 3]?
morphological change of normal NIH3T3 cells (normal NIH3T3 cells [7]): no morphological change; IC50 [1]: 11 µg/mL (≈ 70 µM); growth of normal NIH3T3 cells (normal NIH3T3 cells [8]): continued to grow; IC50 (OG56 (human lung cancer)): 70 µg/mL (≈ 445 µM); death of transformed NIH3T3 cells [9]: partially died; revertants among surviving transformed NIH3T3 cells (morphology) [9]: revertants which were flat and had nuclei and nucleoli morphologically similar to the normal NIH3T3 cells; IC50 [2]: 11 µg/mL (≈ 70 µM); IC50 [3]: 20 µg/mL (≈ 127 µM); Survival dose (doses causing no death) [4]: 800 mg/kg; IC50 [5]: 9 µg/mL (≈ 57.3 µM); tumor formation by revertants on nude mice [10]: scarcely induced tumor formation; IC50 (CCRFCEM (human T cells)): 20 µg/mL (≈ 127 µM); expression of activated p21 in revertants (ras gene product p21): the activated p21 was expressed in the revertants; growth inhibition of NIH3T3 cells transformed with the activated ras gene [11]: inhibited the growth; IC50 [6]: 5 µg/mL (≈ 31.8 µM); IC50 (B16 cells (melanoma)): 45 µg/mL (≈ 286 µM)

With N=C1C=CCC(C(=O)O)N1 (stereo not drawn) [Compound of Ex. 4] as the compound, how does the “Survival dose (doses causing no death)” value [4] read?
The value was 600 mg/kg.

What does the source list for N=C1C=CC[C@@H](C(=O)O)N1 [SF2698]?
IC50 [1]: 51 µg/mL (≈ 364 µM); IC50 (OG56 (human lung cancer)): 80 µg/mL (≈ 571 µM); IC50 [2]: 46 µg/mL (≈ 328 µM); IC50 [3]: 45 µg/mL (≈ 321 µM); Survival dose (doses causing no death) [4]: 300 mg/kg; IC50 [5]: 65 µg/mL (≈ 464 µM); IC50 (CCRFCEM (human T cells)): 45 µg/mL (≈ 321 µM); antitumor activity [12]: has an antitumor activity; IC50 [6]: 120 µg/mL (≈ 856 µM); IC50 (B16 cells (melanoma)): 41 µg/mL (≈ 293 µM)

Which “growth inhibition of NIH3T3 cells transformed with the activated ras gene (azatyrosine)” value ([13]; 500 μg/ml) does the source give for N[C@@H](Cc1ccc(O)cn1)C(=O)O [azatyrosine, L-β-(5-hydroxy-2-pyridyl)alanine] here?
The value was “selectively inhibited the growth”.

And the “nature of cells surviving after treatment with azatyrosine” value [13]?
Its value is “revertant cells”.

What about the “growth inhibition of normal NIH3T3 cells (azatyrosine)” value (normal NIH3T3 cells [14]) of the same compound?
The value was “never inhibited the growth”.
